Laboratory results published in publication PMC6690489 (Bioorganic & medicinal chemistry letters, 2018).

How the values were obtained:
[1] = test system: CYP450; test: CYP450 inhibition profile; format: in vitro ADME
[2] = predicted hepatic clearance; format: in vitro ADME; conditions: rat
[3] = target: T1, human M4 (Homo sapiens, UniProt P08173); test: calcium mobilization human M4/Gqi5 assay with EC20 acetylcholine; format: cell-based
T1 sequence (P08173 1-479): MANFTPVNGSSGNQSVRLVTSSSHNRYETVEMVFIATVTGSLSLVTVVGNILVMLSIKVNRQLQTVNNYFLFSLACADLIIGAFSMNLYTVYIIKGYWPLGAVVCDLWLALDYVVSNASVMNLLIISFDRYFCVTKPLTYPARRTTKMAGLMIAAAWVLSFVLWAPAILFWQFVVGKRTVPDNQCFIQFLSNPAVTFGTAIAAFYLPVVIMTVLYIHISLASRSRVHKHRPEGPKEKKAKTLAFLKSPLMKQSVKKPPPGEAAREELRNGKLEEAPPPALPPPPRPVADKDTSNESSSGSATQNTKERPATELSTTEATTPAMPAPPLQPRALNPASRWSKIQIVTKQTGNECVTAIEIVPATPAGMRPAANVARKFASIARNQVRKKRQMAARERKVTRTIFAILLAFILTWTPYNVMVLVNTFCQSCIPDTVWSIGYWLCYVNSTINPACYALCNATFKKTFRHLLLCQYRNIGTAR

Row | IC50 [1] | predicted hepatic clearance CLhep [2] | Structure (SMILES) | other results
1 | < 5000 nM | 66 mL/min/kg | COc1ccc(CNc2n[nH]c3c2sc2nc(C)cc(C)c23)cc1 [22a] | –
2 | – | > 67 mL/min/kg | Cc1nc2sc3c(NCC4CC4)nn(C)c3c2c(C)c1Cl [27d] | –
3 | – | > 67 mL/min/kg | Cc1nc2sc3c(NCc4ccco4)nn(C)c3c2c(C)c1Cl [27e] | –
4 | – | – | COc1ccc(CNC(=O)c2cc3c(C)c(C)nnc3s2)cc1F [18a] | loss of potency relative to parent 4 ([3]; des-amino analog vs NH2-bearing 4): ~ 18 fold
5 | > 30000 nM | – | Cc1nnc2sc3c(NCc4ccc(S(C)(=O)=O)c(F)c4)nn(C)c3c2c1C [30b] | –
6 | – | 67.8 mL/min/kg | COc1ccc(CNc2nn(C)c3c2sc2nnc(C)c(C)c23)cc1 [30a] | EC50 [3]: 44 nM
